Results reported in ChEMBL document CHEMBL4602605, “Fluoroquinolones structural and medicinal developments (2013-2018): Where are we now?” (Bioorg Med Chem, 2019).
Converted amounts (≈) assume the structure as drawn.

Key:
Type in all cases: functional
Pseudomonas aeruginosa [1] = assay: Antimicrobial activity against Pseudomonas aeruginosa ATCC 43288 incubated for 18 to 24 hrs by microbroth dilution method
[2] = test system: Yersinia pseudotuberculosis; assay: Antimicrobial activity against Yersinia pseudotuberculosis ATCC 911 incubated for 18 to 24 hrs by microbroth dilution method
Staphylococcus aureus [3] = assay: Antimicrobial activity against Staphylococcus aureus ATCC 25923 incubated for 18 to 24 hrs by microbroth dilution method
Enterococcus faecalis = assay: Antimicrobial activity against Enterococcus faecalis ATCC 29212 incubated for 18 to 24 hrs by microbroth dilution method
Bacillus cereus = assay: Antimicrobial activity against Bacillus cereus 709 Roma incubated for 18 to 24 hrs by microbroth dilution method
[4] = test system: Mycolicibacterium smegmatis; assay: Antimicrobial activity against Mycobacterium smegmatis ATCC 607 incubated for 48 to 72 hrs by microbroth dilution method
Staphylococcus aureus [5] = assay: Antimicrobial activity against methicillin-resistant Staphylococcus aureus ATCC 25923 by microdilution method
Escherichia coli [6] = assay: Antimicrobial activity against Escherichia coli ATCC […] by microdilution method
Escherichia coli [7] = assay: Antimicrobial activity against multidrug resistance Escherichia coli ATCC 35218 by microdilution method
Staphylococcus aureus [8] = assay: Antimicrobial activity against Staphylococcus aureus ATCC 29213 by microdilution method
Helicobacter pylori [9] = assay: Antimicrobial activity against Helicobacter pylori clinical isolate 1 after 7 days by two-fold agar dilution method; details: clinical isolate 1, 168 h
Helicobacter pylori [10] = assay: Antimicrobial activity against Helicobacter pylori clinical isolate 2 after 7 days by two-fold agar dilution method; details: clinical isolate 2, 168 h
Pseudomonas aeruginosa [11] = assay: Antimicrobial activity against Pseudomonas aeruginosa ATCC 27853 incubated for 18 to 24 hrs by disk diffusion method
Escherichia coli [12] = assay: Antimicrobial activity against Escherichia coli ATCC 25922 incubated for 18 to 24 hrs by disk diffusion method
Staphylococcus aureus [13] = assay: Antimicrobial activity against Staphylococcus aureus ATCC 25923 incubated for 18 to 24 hrs by disk diffusion method
Bacillus subtilis = assay: Antimicrobial activity against Bacillus subtilis 10B incubated for 18 to 24 hrs by disk diffusion method
Staphylococcus aureus [14] = assay: Antimicrobial activity against methicillin-susceptible Staphylococcus aureus ATCC 29213 incubated for 16 hrs by CLSI method; details: ATCC 29213, 16 h
Staphylococcus aureus [15] = assay: Antimicrobial activity against healthcare-acquired methicillin-resistant Staphylococcus aureus NRS70 incubated for 16 hrs by CLSI method; details: NRS70, 16 h
Aspergillus clavatus = assay: Antifungal activity against Aspergillus clavatus after overnight incubation by agar well diffusion method
Candida albicans = assay: Antifungal activity against Candida albicans after overnight incubation by agar well diffusion method
[16] = test system: Mycobacterium tuberculosis; assay: Antimicrobial activity against Mycobacterium tuberculosis H37Rv incubated for 10 days by microbroth dilution method; details: 240 h

**Q.** Which MIC (Pseudomonas aeruginosa [1]) does the source give for `CCn1cc(C(=O)O)c(=O)c2cc(F)c(N3CCN(Cn4nc(CN5CCN(c6ccc([N+](=O)[O-])cc6)CC5)n(-c5ccccc5)c4=S)CC3)cc21` here?
**A.** 0.03 to 0.24 µg/mL (≈ 0.0412 to 0.33 µM)

**Q.** And the MIC [2]?
**A.** 0.06 µg/mL (≈ 0.0824 µM)

**Q.** And the MIC (Staphylococcus aureus [3])?
**A.** 0.24 to 0.48 µg/mL (≈ 0.33 to 0.66 µM)

**Q.** And the MIC (Enterococcus faecalis)?
**A.** 0.122 to 0.25 µg/mL (≈ 0.168 to 0.343 µM)

**Q.** What about the MIC (Bacillus cereus) of the same molecule?
**A.** 0.12 to 0.24 µg/mL (≈ 0.165 to 0.33 µM)

**Q.** What about the MIC [4] of the same molecule?
**A.** 0.244 to 0.25 µg/mL (≈ 0.335 to 0.343 µM)

**Q.** With `CCN1CCN(N(Cn2nc3c(F)cc4c(=O)c(C(=O)O)cn(C5CC5)c4n3c2=O)N2CCN(CC)CC2)CC1` as the molecule, how does the MIC (Staphylococcus aureus [5]) read?
**A.** ≤ 0.5 µg/mL

**Q.** What about the MIC (Escherichia coli [6]) of the same molecule?
**A.** ≤ 0.125 µg/mL

**Q.** And the MIC (Escherichia coli [7])?
**A.** ≤ 0.25 µg/mL

**Q.** What about the MIC (Staphylococcus aureus [8]) of the same molecule?
**A.** ≤ 0.125 µg/mL

**Q.** What does the source list for `Cc1ccc(-n2nnc3c4c(cc(F)c32)c(=O)c(C(=O)O)cn4C2CC2)cc1`?
**A.** MIC (Helicobacter pylori [9]): 5 µg/mL (≈ 13.2 µM); MIC (Helicobacter pylori [10]): 1.3 µg/mL (≈ 3.44 µM)

**Q.** Which MIC (Staphylococcus aureus [5]) does the source give for `O=C(O)c1cn(C2CC2)c2c(cc(F)c3nn(CN(N4CCCCC4)N4CCCCC4)c(=O)n32)c1=O` here?
**A.** ≤ 8 µg/mL

**Q.** What about the MIC (Escherichia coli [6]) of the same molecule?
**A.** ≤ 1 µg/mL

**Q.** What about the MIC (Escherichia coli [7]) of the same molecule?
**A.** ≤ 4 µg/mL

**Q.** What about the MIC (Staphylococcus aureus [8]) of the same molecule?
**A.** ≤ 1 µg/mL

**Q.** Which MIC (Pseudomonas aeruginosa [1]) does the source give for `CCn1cc(C(=O)O)c(=O)c2cc(F)c(N3CCN(Cn4nc(CN5CCN(c6ccc([N+](=O)[O-])cc6)CC5)n(-c5ccccc5)c4=O)CC3)cc21` here?
**A.** 0.24 to 0.48 µg/mL (≈ 0.337 to 0.674 µM)

**Q.** What about the MIC [2] of the same molecule?
**A.** 0.03 to 0.25 µg/mL (≈ 0.0421 to 0.351 µM)

**Q.** And the MIC (Staphylococcus aureus [3])?
**A.** 0.24 to 0.48 µg/mL (≈ 0.337 to 0.674 µM)

**Q.** What about the MIC (Enterococcus faecalis) of the same molecule?
**A.** 0.122 µg/mL (≈ 0.171 µM)

**Q.** And the MIC (Bacillus cereus)?
**A.** 0.03 to 0.25 µg/mL (≈ 0.0421 to 0.351 µM)

**Q.** What about the MIC [4] of the same molecule?
**A.** 0.244 to 0.25 µg/mL (≈ 0.343 to 0.351 µM)

**Q.** How did the MIC (Staphylococcus aureus [5]) turn out when `CN1CCN(N(Cn2nc3c(F)cc4c(=O)c(C(=O)O)cn(C5CC5)c4n3c2=O)N2CCN(C)CC2)CC1` was run?
**A.** ≤ 2 µg/mL

**Q.** And the MIC (Escherichia coli [6])?
**A.** ≤ 0.25 µg/mL

**Q.** What about the MIC (Escherichia coli [7]) of the same molecule?
**A.** ≤ 2 µg/mL

**Q.** And the MIC (Staphylococcus aureus [8])?
**A.** ≤ 0.25 µg/mL

**Q.** What does the source list for `Nc1c(Nc2ccc(F)cc2)c(F)cc2c(=O)c(C(=O)O)cn(C3CC3)c12`?
**A.** MIC (Helicobacter pylori [9]): 2.5 µg/mL (≈ 6.73 µM); MIC (Helicobacter pylori [10]): 5 µg/mL (≈ 13.5 µM)

**Q.** Which MIC (Helicobacter pylori [9]) does the source give for `COc1ccc(-n2nnc3c4c(cc(F)c32)c(=O)c(C(=O)O)cn4C2CC2)cc1` here?
**A.** 2.5 µg/mL (≈ 6.34 µM)

**Q.** What about the MIC (Helicobacter pylori [10]) of the same molecule?
**A.** 1.3 µg/mL (≈ 3.3 µM)

**Q.** How did the MIC (Pseudomonas aeruginosa [11]) turn out when `CCn1cc(C(=O)O)c(=O)c2cc(F)c(NNc3n[nH]c(N)n3)c(F)c21` was run?
**A.** > 500 µg/mL

**Q.** What about the MIC (Escherichia coli [12]) of the same molecule?
**A.** 390 µg/mL (≈ 1070 µM)

**Q.** And the MIC (Staphylococcus aureus [13])?
**A.** 240 µg/mL (≈ 657 µM)

**Q.** What about the MIC (Bacillus subtilis) of the same molecule?
**A.** > 500 µg/mL

**Q.** How did the MIC (Staphylococcus aureus [5]) turn out when `CCn1cc(C(=O)O)c(=O)c2cc(F)c(-n3cc(CO[C@H]4O[C@@H](C)[C@H](OC(C)=O)[C@@H](OC(C)=O)[C@H]4OC(C)=O)nn3)c(F)c21` was run?
**A.** ≤ 16 µg/mL

**Q.** And the MIC (Escherichia coli [6])?
**A.** ≤ 4 µg/mL

**Q.** What about the MIC (Escherichia coli [7]) of the same molecule?
**A.** ≤ 16 µg/mL

**Q.** And the MIC (Staphylococcus aureus [8])?
**A.** ≤ 4 µg/mL

**Q.** How did the MIC90 (Staphylococcus aureus [14]) turn out when `COc1c(N2CC3CCCCC3C2)c(F)cc2c(=O)c(C(=O)N3CCSC3)cn(C3CC3)c12` (stereo unspecified) was run?
**A.** 0.79 µg/mL (≈ 1.68 µM)

**Q.** What about the MIC90 (Staphylococcus aureus [15]) of the same molecule?
**A.** 0.79 µg/mL (≈ 1.68 µM)

**Q.** What does the source list for `COc1c(N2CCN(C)CC2)c(F)cc2c(=O)c(C(=O)N/N=C\c3cccc([N+](=O)[O-])c3)cn(C3CC3)c12`?
**A.** inhibition zone (IZ) (Aspergillus clavatus): 10 mm; inhibition zone (IZ) (Candida albicans): 12 mm

**Q.** Which MIC [16] does the source give for `CCO/N=C1/CN(CCCn2cc(CN3CCCC4CN(c5c(F)cc6c(=O)c(C(=O)O)cn(C7CC7)c6c5OC)CC43)nn2)c2ccc(F)cc21` (stereo unspecified) here?
**A.** 12.5 µg/mL (≈ 17.4 µM)

**Q.** Which MIC90 (Staphylococcus aureus [14]) does the source give for `COc1c(N2CC3=CCCCC3C2)c(F)cc2c(=O)c(C(=O)N3CCSC3)cn(C3CC3)c12` (stereo unspecified) here?
**A.** 6.3 µg/mL (≈ 13.4 µM)

**Q.** And the MIC90 (Staphylococcus aureus [15])?
**A.** 6.3 µg/mL (≈ 13.4 µM)

**Q.** For `COc1c(F)c(F)cc2c(=O)c(C(=O)N3CCSC3)cn(C3CC3)c12`, which MIC90 (Staphylococcus aureus [14]) is on record?
**A.** > 201 µg/mL

**Q.** And the MIC90 (Staphylococcus aureus [15])?
**A.** > 201 µg/mL

**Q.** For `COc1c(N2CC3CCCCC3C2)c(F)cc2c(=O)c(C(=O)Nc3nccs3)cn(C3CC3)c12` (stereo unspecified), which MIC90 (Staphylococcus aureus [14]) is on record?
**A.** > 201 µg/mL

**Q.** And the MIC90 (Staphylococcus aureus [15])?
**A.** > 201 µg/mL

**Q.** How did the MIC (Helicobacter pylori [9]) turn out when `Nc1c(Nc2ccccc2)c(F)cc2c(=O)c(C(=O)O)cn(C3CC3)c12` was run?
**A.** 0.6 µg/mL (≈ 1.7 µM)

**Q.** What about the MIC (Helicobacter pylori [10]) of the same molecule?
**A.** 1.3 µg/mL (≈ 3.68 µM)

**Q.** `CCn1cc(C(=O)O)c(=O)c2cc(F)c(Nn3c(=O)[nH]cc(F)c3=O)c(F)c21` was tested. Which MIC (Pseudomonas aeruginosa [11]) did it give?
**A.** > 500 µg/mL

**Q.** And the MIC (Escherichia coli [12])?
**A.** 120 µg/mL (≈ 303 µM)

**Q.** And the MIC (Staphylococcus aureus [13])?
**A.** 390 µg/mL (≈ 984 µM)

**Q.** And the MIC (Bacillus subtilis)?
**A.** > 500 µg/mL

**Q.** Which results are given for `COc1c(N2CCOCC2)c(F)cc2c(=O)c(C(=O)Nc3nccs3)cn(C3CC3)c12`?
**A.** MIC90 (Staphylococcus aureus [14]): > 201 µg/mL; MIC90 (Staphylococcus aureus [15]): > 201 µg/mL

**Q.** For `C[C@H]1COc2c(-c3cc4cc(Br)ccc4oc3=O)c(F)cc3c(=O)c(C(=O)O)cn1c23`, which MIC [16] is on record?
**A.** 12.5 µg/mL (≈ 25.7 µM)

**Q.** For `CCn1cc(C(=O)O)c(=O)c2cc(F)c(N3CCN(Cn4nc(CN5CCN(c6ccc([N+](=O)[O-])cc6)CC5)n(-c5ccc(F)cc5)c4=O)CC3)cc21`, which MIC (Pseudomonas aeruginosa [1]) is on record?
**A.** 0.24 µg/mL (≈ 0.329 µM)

**Q.** What about the MIC [2] of the same molecule?
**A.** 0.12 µg/mL (≈ 0.164 µM)

**Q.** And the MIC (Staphylococcus aureus [3])?
**A.** 0.48 µg/mL (≈ 0.658 µM)

**Q.** And the MIC (Enterococcus faecalis)?
**A.** 0.122 µg/mL (≈ 0.167 µM)

**Q.** And the MIC (Bacillus cereus)?
**A.** 0.12 µg/mL (≈ 0.164 µM)

**Q.** And the MIC [4]?
**A.** 0.244 µg/mL (≈ 0.334 µM)

**Q.** Which MIC90 (Staphylococcus aureus [14]) does the source give for `COc1c(N2CCCCC2)c(F)cc2c(=O)c(C(=O)Nc3nccs3)cn(C3CC3)c12` here?
**A.** > 201 µg/mL

**Q.** What about the MIC90 (Staphylococcus aureus [15]) of the same molecule?
**A.** > 201 µg/mL
